Measurements taken from patent US7238718B2, “Method for treating myolytic disease and method for screening antimyolytic agent” (Osaka Bioscience Institute, priority 2003, dated 2007).

Assays:
[1] = tested on: myolysis induced by bupivacaine hydrochloride in gastrocnemius; assay: Myolysis model induced by bupivacaine hydrochloride, Evans' Blue fluorescence microscopy of gastrocnemius; format: in vivo, C57BL/6 mice; conditions: 10 mg/kg orally; 24 h after bupivacaine hydrochloride 0.5 w/v %, 0.1 ml; FIG. 1
Experimental: Effect of an H-PGDS inhibitor to myolysis was tested using a myolysis model induced by bupivacaine hydrochloride which is an experimental model for muscular dystrophy (Nonaka I, et al., Acta Neuropathol., 60:167–174, 1983). Bupivacaine hydrochloride (0.5 w/v %, 0.1 ml) was injected into gastrocnemius of C57BL/6 mice (K. K. Oriental Bio Service) (eight weeks old; male) to induce myolysis and, after 24 hours, Evans' Blue dye solution (1.0 w/v %) was intravenously injected from tail vein. After 30 minutes, they were killed by excessive anesthetization and perfused with physiological saline solution, gastrocnemius was excised and quickly frozen. The cryosection was prepared and then accumulated Evans' Blue was observed under a fluorescent microscope. Necrotic legion was enhanced by means of fluorescence.

[2] = tested on: myolysis in mdx mice; assay: Therapeutic effect in mdx mice (Duchenne's muscular dystrophy model), Evans' Blue retention; format: in vivo; conditions: continuously administered for two weeks; compared with vehicle group; FIG. 5
Experimental: HQL-79 was continuously administered for two weeks to mdx mice which is a model animal for Duchenne's muscular dystrophy (Bogdanovich S, et al., Nature, Nov. 28, 2002, 420(6914):418–21) […] and the effect of the HPGDS inhibitor to myolysis was tested. After two weeks from the initiation of the administration, an Evans' Blue dye solution (1.0 w/v %) was intravenously injected from tail vein. After one hour therefrom, the mice were killed by excessive anaesthetization and perfused with physiological saline solution, the gastrocnemius was excised and quickly frozen. The retention of Evans' Blue in the muscle was observed under a fluorescent microscope. Necrotic lesion was enhanced by means of fluorescence. In the mice to which HQL-79 was administered, retention of the dye (grayish white region) which is an index for myolysis decreased as compared with the group to which a vehicle was administered (refer to FIG. 5).

[3] = tested on: myolysis induced by bupivacaine hydrochloride in gastrocnemius; assay: Nonoperative observation of necrotic lesion using X-ray CT with iopamidol; format: in vivo, mice; conditions: one day after bupivacaine hydrochloride; 15 min after iopamidol i.v.; FIG. 3
Experimental: Degenerated region was observed by a nonoperative manner using X-ray CT for experimental animals. N,N′-Bis[2-hydroxy-1-(hydroxymethyl)ethyl]-5-[(2S)-2-hydroxypropanoylamino]-2,4,6-triiodoisophthalamide (iopamidol), an X-ray contrast agent for urinary blood vessels, was intravenously injected from tail vein of mice after one day from the treatment with bupivacaine hydrochloride and a laminogram by an X-ray CT after 15 minutes is shown. A region with specific CT values which is noted in the laminogram of gastrocnemius decreased by administration of HQL-79. In the region where retention of the contrast agent is recognized, bleeding and edema as a result of muscular destruction are noted (refer to FIG. 3).

[4] = tested on: myolysis induced by bupivacaine hydrochloride in gastrocnemius; assay: Quantification of myolysis region by Evans' Blue extraction and absorbance (630 nm); format: in vivo, C57BL/6 mice
Experimental: Quantification of the degenerated region by necrosis shown in Example 1 was carried out. Evans' Blue was extracted from the freeze-dried gastrocnemius by formamide. After the extraction, absorbance of Evans' Blue (630 nm) was measured calorimetrically.

Row | SMILES | degenerated region by necrosis (Evans' Blue fluorescence) [1] | retention of Evans' Blue dye in muscle (index for myolysis) [2] | region with specific CT values in laminogram of gastrocnemius [3] | incorporation of Evans' Blue into gastrocnemius (absorbance 630 nm) ([4]; HQL-79 group of Example 1, formamide extraction, FIG. 2) | amount of Evans' Blue impregnated into the tissue (absorbance 630 nm) ([4]; 30 mg/kg orally, 1 h before and 18 h after bupivacaine hydrochloride 1 w/v %, 0.05 mL, read at 24 h, FIG. 6)
1 | c1ccc(C(OC2CCN(CCCc3nnn[nH]3)CC2)c2ccccc2)cc1 [HQL-79, 4-benzhydryloxy-1-{3-(1H-tetrazol-5-yl)-propyl}piperidine] | degenerated region by necrosis became small | decreased | decreased | significantly decreased | –
2 | O=C(O)CCn1c2c(c3ccccc31)C[C@H](NS(=O)(=O)c1ccc(F)cc1)CC2 [ramatroban, (+)-(3R)-3-(4-fluorobenzenesulfonamide)-1,2,3,4-tetrahydrocarbazole-9-propionic acid] | – | – | – | – | lowered
